Data taken from patent publication US20150233930A1, “METHODS AND COMPOSITIONS EMPLOYING SECRETED PROTEINS THAT REFLECT AUTOPHAGY DYNAMICS WITHIN TUMOR CELLS” (The Wistar Institute of Anatomy and Biology, priority 2014, published 2015).

Tests used:
[1] = test system: tumor cells; conditions: preclinical models of melanoma; cited from earlier work
[2] = test system: 1205Lu cells; assay: LC3 immunoblotting of lysates from cells treated with rapamycin or hydroxychloroquine; assay type: cell-based, human; conditions: 1205Lu cells compared to WM793 cells
Method: Melanoma cell lines […] and 1205Lu (as well as other cell lines identified in the appropriate figures) were maintained in RPMI 1640 (Invitrogen) supplemented with 10% fetal bovine serum (Sigma), 50 μg/mL gentamicin, and 25 mmol/L HEPES in the presence of 5% CO2 at 37° C. The 3D spheroid cultures were prepared as previously described^1 and cell death was evaluated using the Live/Dead Assay (Invitrogen). Electron microscopy was performed as previously described^1. Immunoblotting was performed on whole cell lysates as previously described. A commercially available polyclonal antibody against actin (I-19) was used (Santa Cruz). A polyclonal antibody against LC3 that was produced by QCB Biologicals was used. Band densities from Western Blots were quantified using Adobe Photoshop CS4 Extended.
The genetically paired melanoma cell lines, WM793 and 1205Lu, were used for initial secretome comparisons due to the inherent genetic heterogeneity across unrelated melanoma cell lines. The 1205Lu cell line is a subclone derived from the lung metastasis of WM793 in athymic mice, thus minimizing protein expression changes caused by genetic differences^14. To determine autophagic capacity in these paired cell lines, electron microscopy of WM793 and 1205Lu grown in complete medium was used to quantify AVs (FIG. 1A). […]

For `CCN(CCO)CCCC(C)Nc1ccnc2cc(Cl)ccc12` (centres unmarked) [hydroxychloroquine], the “effect on cytotoxic effects of alkylating agents” value [1] is given as “augment the cytotoxic effects of alkylating agents” and the LC3II/LC3I ratio [2] is given as “increases”.
